# Tests used:
# [1] = system: other cell lines (K-562, NALM-1, CCRF-CEM, MOLT-3/-4); experiment: MTT assay after 72 hours, other cell lines; format: cell-based; settings: Homo sapiens, 72 h exposure
# Method: (§1) Protein was analyzed by Western blot and qRT-PCR was performed with Fast SYBR Green on a StepOnePlus Real-Time PCR System. […] Combination Index (CI) was determined using Chou & Talalay analysis; CI<1 reflects synergy, CI=1 additivity and CI>1 reflects antagonism.
# (§2) Four established human cell lines derived from acute (HL60, U937) or chronic (K562) myeloid leukemia cells, and acute lymphoblastic leukemia cells (Jurkat) were treated with increasing doses of compound (1-1). MTT assays were performed after 72 hours exposure. GI50 and Emax values were calculated with the equation for sigmoidal dose response using Prism 5.00 and cell lines were classified as sensitive or resistant.
# (§3) Five established human cell lines from acute and chronic acute myeloid leukemia (HL-60, U937, K562) and acute lymphoblastic leukemia (Jurkat, MOLT-3) were used. […] At each time point, compound 1-1 extracellular and intracellular concentrations were analyzed in cell supernatant and pellets respectively, using an Ultra Performance Liquid Chromatography with tandem Mass Spectrometry (concentration range 1-250 ng/mL). […] In addition, in cell pellets protein modulation was analyzed by Western blot using commercial antibodies and qRT-PCR was performed using Fast SYBR Green on a StepOnePlus RT-PCR System.
# [2] = system: HL-60, U937, K562, Jurkat, MOLT-3; experiment: cellular PK: extracellular and intracellular concentrations by UPLC-MS/MS; format: in vitro ADME, human; settings: 500 nM
# Method: (§4) Five established human cell lines from acute and chronic acute myeloid leukemia (HL-60, U937, K562) and acute lymphoblastic leukemia (Jurkat, MOLT-3) were used. […] For cellular PK studies, cells were seeded at 2·10^6 cells/ml and exposed to 500 nM compound 1-1 for 0, 5, 15, 30, 60, 120 and 360 minutes. At each time point, compound 1-1 extracellular and intracellular concentrations were analyzed in cell supernatant and pellets respectively, using an Ultra Performance Liquid Chromatography with tandem Mass Spectrometry (concentration range 1-250 ng/mL). Experiments were performed in quadruplicate. In addition, in cell pellets protein modulation was analyzed by Western blot using commercial antibodies and qRT-PCR was performed using Fast SYBR Green on a StepOnePlus RT-PCR System.
# CMYC [3] = experiment: CMYC modulation (Western blot, qRT-PCR) in sensitive cell lines HL60 and Jurkat; format: cell-based, human; settings: 500 nM
# Method: as §4
# [4] = phase Ib dose-finding study, population pharmacokinetics; format: in vivo, human
# Method: An oncology phase Ib trial of compound (1-1) was conducted by the inventors with the primary objective of investigating escalation of the dose of compound (1-1) administered to patients with acute leukemia or other hematologic malignancies. The study enrolled patients with acute leukemia or other hematologic malignancies. The patients received several active dose levels of compound (1-1) ranging from 10 mg to 160 mg according to different dosing schedules. Blood samples from 7 time points were collected from each patient over 24 hours post-administration on Day 1 for leukemia patients (“complete PK”) and 4 blood samples were collected from each patient over 8 hours post-administration for patients with other hematologic malignancies (“limited PK”). compound (1-1) plasma concentrations were measured on the basis of the blood samples using validated ultra performance liquid chromatography with tandem mass spectrometry detection with a concentration range 1-250 ng/mL. Analyses and population pharmacokinetics (PPK) modeling were performed with the nonlinear mixed effect modeling software program Monolix version 4.3. Pharmacokinetic Parameters, including absorption constant (Ka); apparent distribution volume (V/F), apparent clearance (CL/F) and lean body mass (LBM; calculated calculated considering patient sex, weight and height) were calculated.
# 85 patients enrolled in the phase Ib trial of compound (1-1) and were treated from January 2013 to August 2014. The patients were randomized to […]: 10 mg, 20 mg, 40 mg, 80 mg, 120 mg and 160 mg once a day dosing (QD); and 40 mg twice a day dosing (BID). Among them, 81 patients with 630 plasma concentrations (607+23 BLQ) were evaluable for PK assessment. A 1-compartment open model adequately described the total compound (1-1) concentration-time curve. […] In the PPK study, the best simulation model was obtained when LBM was considered in the analysis. A correlation between CL/F and V/F was also observed for compound (1-1).
# HL60, U937 and Jurkat = experiment: MTT assay after 72 hours, sensitive cell lines; format: cell-based; settings: Homo sapiens, 72 h exposure
# Method: as §1, §2, §3
# CMYC [5] = experiment: CMYC modulation (Western blot, qRT-PCR) in resistant cell line K562; format: cell-based, human; settings: K562, 500 nM
# Method: as §4
# HDAC8 = target: T1, HDAC8 (Homo sapiens, UniProt Q9BY41); settings: cited from earlier work
# T1 sequence (Q9BY41 1-377): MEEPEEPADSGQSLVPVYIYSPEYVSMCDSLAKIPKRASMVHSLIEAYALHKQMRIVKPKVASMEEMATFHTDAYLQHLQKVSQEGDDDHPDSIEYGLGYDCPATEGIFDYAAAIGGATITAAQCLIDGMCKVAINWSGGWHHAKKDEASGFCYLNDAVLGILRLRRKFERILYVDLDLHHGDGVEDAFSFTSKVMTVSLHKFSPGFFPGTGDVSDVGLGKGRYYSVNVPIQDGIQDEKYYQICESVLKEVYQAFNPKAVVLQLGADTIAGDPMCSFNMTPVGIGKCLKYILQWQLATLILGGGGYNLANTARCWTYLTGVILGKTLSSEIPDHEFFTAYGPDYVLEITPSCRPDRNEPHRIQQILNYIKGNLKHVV
# [6] = sensitive and resistant leukemic cell lines
# [7] = patients, PPK 1-compartment model
GI50 [1] [µM],"intracellular concentration, mean [2, 6] [ng/106 cells]","intracellular concentration, range [2, 6]","time to cellular uptake [2, 6] [min]",extracellular levels ([2]; stable up to 6 h of incubation) [ng/mL],"half-life ([4]; human, plasma, oral, all patients, read-out: mean elimination half-life (converted)) [h]","Tmax ([4]; human, plasma, oral, patients) [h]","absorption constant Ka ([4]; patients, 10-160 mg oral, PPK 1-compartment model) [h⁻¹]","apparent clearance CL/F [4, 7] [L/h]","apparent distribution volume V/F [4, 7] [L]","GI50 (HL60, U937 and Jurkat) [µM]",SMILES,CMYC protein and mRNA levels (CMYC [3]),exposure time after which CMYC mRNA levels downregulation was observed (CMYC [5]) [h],IC50 (HDAC8) [µM]
≥ 6,~15,3-23 ng·mL-1/106 cells,< 5,~200,5.8,1 to 4,0.74,8.45,71.7,0.23 to 0.384,"Cc1sc2c(c1C)C(c1ccc(Cl)cc1)=N[C@@H](CC(=O)Nc1ccc(O)cc1)c1nnc(C)n1-2 [Compound (1-1), 2-[(6S)-4-(4-chlorophenyl)-2,3,9-trimethyl-6H-thienol[3,2-f]-[1,2,4]triazolo[4,3-a][1,4]diazepin-6-yl]-N-(4-hydroxyphenyl)acetamide dihydrate]",rapid downregulation,2,
,,,,,,,,,,,"Cc1cc(Cl)ccc1OCCCC(=O)NO [Droxinostat, 4-(4-Chloro-2-methylphenoxy)-N-hydroxybutanamide]",,,1.46

# From patent US9956228B2, “Method of treating acute myeloid leukemia and/or acute lymphoblastic leukemia using thienotriazolodiazepine compounds” (ONCOETHIX GMBH, priority 2014, dated 2018)
